Measured values: US11401270B2, “Alcoxyamino derivatives for treating pain and pain related conditions” (ESTEVE PHARMACEUTICALS, S.A., priority 2017, dated 2022)
Read-outs that look alike come from different tables or passages of the source.

Molecular target: Human α2δ-1 subunit of Cav2.2 calcium channel (Homo sapiens (Human), UniProt P54289)
Assay: Binding Assay to Human α2δ-1 Subunit of Cav2.2 Calcium Channel
Conditions: human α2δ-1 enriched membranes, 15 nM [3H]-Gabapentin, read-out: Ki(nM) alpha2delta Hum
Protocol: Binding Assay to Human α2δ-1 Subunit of Cav2.2 Calcium Channel.
NSB (non specific binding) was measured by adding 10 μM pregabalin. The binding of the test compound was measured in five different concentrations. After 60 min incubation at 27° C., binding reaction was terminated by filtering through Multiscreen GF/C (Millipore) presoaked in 0.5% polyethyleneimine in Vacuum Manifold Station, followed by 3 washes with ice-cold filtration buffer containing 50 mM Tris-HCl, pH 7.4.
Filter plates were dried at 60° C. for 1 hour and 30 μl of scintillation cocktail were added to each well before radioactivity reading.

Sequence of Human α2δ-1 subunit of Cav2.2 calcium channel (P54289 25-1103): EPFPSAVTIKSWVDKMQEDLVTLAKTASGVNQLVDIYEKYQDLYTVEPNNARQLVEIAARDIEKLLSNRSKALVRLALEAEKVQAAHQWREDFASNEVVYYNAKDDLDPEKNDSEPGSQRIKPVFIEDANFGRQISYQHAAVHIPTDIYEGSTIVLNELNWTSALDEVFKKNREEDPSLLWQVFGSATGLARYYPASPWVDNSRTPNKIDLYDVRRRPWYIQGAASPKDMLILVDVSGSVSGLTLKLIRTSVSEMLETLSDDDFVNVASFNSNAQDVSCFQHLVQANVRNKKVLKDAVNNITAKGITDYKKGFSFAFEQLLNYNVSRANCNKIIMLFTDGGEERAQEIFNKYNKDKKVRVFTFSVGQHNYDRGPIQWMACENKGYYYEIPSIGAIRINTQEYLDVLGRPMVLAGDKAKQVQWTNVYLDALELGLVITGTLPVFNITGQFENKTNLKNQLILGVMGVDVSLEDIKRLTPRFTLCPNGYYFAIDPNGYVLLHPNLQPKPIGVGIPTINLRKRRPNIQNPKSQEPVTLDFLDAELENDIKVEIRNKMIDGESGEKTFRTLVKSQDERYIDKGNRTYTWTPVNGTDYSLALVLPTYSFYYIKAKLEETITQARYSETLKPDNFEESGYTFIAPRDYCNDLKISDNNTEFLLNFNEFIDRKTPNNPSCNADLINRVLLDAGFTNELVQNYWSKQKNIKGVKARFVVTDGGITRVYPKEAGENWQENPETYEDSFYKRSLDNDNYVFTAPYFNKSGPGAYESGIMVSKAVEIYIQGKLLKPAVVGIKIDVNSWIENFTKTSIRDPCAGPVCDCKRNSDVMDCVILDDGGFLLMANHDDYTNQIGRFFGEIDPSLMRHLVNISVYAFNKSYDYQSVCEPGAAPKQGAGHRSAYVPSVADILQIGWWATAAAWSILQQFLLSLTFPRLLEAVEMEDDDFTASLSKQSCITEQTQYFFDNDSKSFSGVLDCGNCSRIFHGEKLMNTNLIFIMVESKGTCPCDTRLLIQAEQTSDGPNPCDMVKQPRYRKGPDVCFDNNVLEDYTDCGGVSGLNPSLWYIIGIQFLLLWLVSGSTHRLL

| Ki (Table 1) | Ki (Table 2, dual compounds) | Structure (SMILES) |
| --- | --- | --- |
| > 3000 nM |  | CNCCC(OCc1ccc(N2CCN(C)c3ccccc3C2=O)cc1)c1ccccc1 (stereo not shown) [Example 46, 1-Methyl-4-(4-((3-(methylamino)-1-phenylpropoxy)methyl)phenyl)-1,2,3,4-tetrahydro-5H-benzo[e][1,4]diazepin-5-one] |
| 500 to 3000 nM |  | CNCC[C@@H](OCc1cccc(N2CCN(C)c3ccccc3C2=O)c1)c1ccccc1 [Example 47, (R)-1-methyl-4-(3-((3-(methylamino)-1-phenylpropoxy)methyl)phenyl)-1,2,3,4-tetrahydro-5H-benzo[e][1,4]diazepin-5-one] |
| > 3000 nM |  | CNCCC(Oc1cccc(N2CC(=O)N(C)c3ccccc3C2=O)c1)c1cccs1 (stereo not shown) [Example 51, 1-Methyl-4-(3-(3-(methylamino)-1-(thiophen-2-yl)propoxy)phenyl)-3,4-dihydro-1H-benzo[e][1,4]diazepine-2,5-dione] |
| > 3000 nM |  | CNCCC(Oc1cccc(N2CCCN(C)CC2=O)c1)c1cccs1 (stereo not shown) [Example 52, 4-Methyl-1-(3-(3-(methylamino)-1-(thiophen-2-yl)procoxy)phenyl)-1,4-diazepan-2-one] |
| 500 to 3000 nM |  | CNCCC(Oc1cccc(N2CCN(C)c3cccnc3C2=O)c1)c1cccs1 (stereo not shown) [Example 57, 1-Methyl-4-(3-(3-(methylamino)-1-(thiophen-2-yl)propoxy)phenyl)-1,2,3,4-tetrahydro-5H-pyrido[3,2-e][1,4]diazepin-5-one] |
| 500 to 3000 nM |  | CCNCC(=O)N1CCC(=O)N(c2cccc(OC(CCNC)c3cccs3)c2)CC1 (stereo not shown) [Example 68, 1-(Ethylglycyl)-4-(3-(3-(methylamino)-1-(thiophen-2-yl)propoxy)phenyl)-1,4-diazepan-5-one] |
| 100 to 500 nM |  | CNCC[C@@H](Oc1cccc(N2CCN(C)c3nc(C)ccc3C2=O)c1)c1ccsc1 [Example 79, (R)-1,8-dimethyl-4-(3-(3-(methylamino)-1-(thiophen-3-yl)propoxy)phenyl)-1,2,3,4-tetrahydro-5H-pyrido[2,3-e][1,4]diazepin-5-one] |
| 500 to 3000 nM |  | CCNC[C@@H]1CC(=O)N(c2cccc(O[C@@H](CCNC)c3cccs3)c2)CCN1C [Example 87, (S)-7-((ethylamino)methyl)-1-methyl-4-(3-((S)-3-(methylamino)-1-(thiophen-2-yl)propoxy)phenyl)-1,4-diazepan-5-one] |
| > 3000 nM |  | CNCCC(OCc1ccc(CN2CCN(C)c3ccccc3C2=O)cc1)c1ccccc1 (stereo not shown) [Example 88, 1-Methyl-4-(4-((3-(methylamino)-1-phenylpropoxy)methyl)benzyl)-1,2,3,4-tetrahydro-5H-benzo[e][1,4]diazepin-5-one] |
| > 3000 nM |  | CNCCC(OCc1cccc(CN2CCN(C)c3ccccc3C2=O)c1)c1ccccc1 (stereo not shown) [Example 89, 1-Methyl-4-(3-((3-(methylamino)-1-phenylpropoxy)methyl)benzyl)-1,2,3,4-tetrahydro-5H-benzo[e][1,4]diazepin-5-one] |
| 500 to 3000 nM |  | CNCCC(Oc1cccc(CN2CCN(C)c3ccccc3C2=O)c1)c1cccs1 (stereo not shown) [Example 106, 1-Methyl-4-(3-(3-(methylamino)-1-(thiophen-yl)propoxy)benzyl)-1,2,3,4-tetrahydro-5H-benzo[e][1,4]diazepin-5-one] |
| < 100 nM |  | CNCC[C@H](Oc1ccc(CN2CCN(C)c3ncccc3C2=O)c(C)c1)c1cccs1 [Example 107, (S)-1-methyl-4-(2-methyl-4-(3-(methylamino)-1-(thiophen-2-yl)propoxy)benzyl)-1,2,3,4-tetrahydro-5H-pyrido[2,3-e][1,4]diazepin-5-one] |
| > 3000 nM |  | CNCCC(Oc1ccc(CN2CCN(C)c3ccccc3C2=O)cc1)c1ccccc1 (stereo not shown) [Example 112, 1-Methyl-4-(4-(3-(methylamino)-1-phenylpropoxy)benzyl)-1,2,3,4-tetrahydro-5H-benzo[e][1,4]diazepin-5-one] |
| > 3000 nM |  | CNCCC(Oc1cccc(CN2CCN(C)c3ccccc3C2=O)c1)c1ccccc1 (stereo not shown) [Example 113, 1-Methyl-4-(3-(3-(methylamino)-1-phenylpropoxy)benzyl)-1,2,3,4-tetrahydro-5H-benzo[e][1,4]diazepin-5-one] |
| 100 to 500 nM |  | CNCCC(Oc1ccc(CN2CCN(C)CCC2=O)c(F)c1)c1cccs1 (stereo not shown) [Example 122, 4-(2-Fluoro-4-(3-(methylamino)-1-(thiophen-2-yl)propoxy)benzyl)-1-methyl-1,4-diazepan-5-one] |
| < 100 nM |  | CNCC[C@H](Oc1ccc(CN2CCN(C)c3ncccc3C2=O)c(C(F)(F)F)c1)c1cccs1 [Example 127, (S)-1-methyl-4-(4-(3-(methylamino)-1-(thiophen-2-yl)propoxy)-2-(trifluoromethyl)benzyl)-1,2,3,4-tetrahydro-5H-pyrido[2,3-e][1,4]diazepin-5-one] |
| 100 to 500 nM |  | CNCC[C@H](Oc1ccc(CN2CCN(C)c3ncccc3C2=O)c(C2CC2)c1)c1cccs1 [Example 128, (S)-4-(2-cyclopropyl-4-(3-(methylamino)-1-(thiophen-2-yl)propoxy)benzyl)-1-methyl-1,2,3,4-tetrahydro-5H-pyrido[2,3-e][1,4]diazepin-5-one] |

Further lines, the molecule ahead of its results:

| Structure (SMILES) | Ki (Table 1) | Ki (Table 2, dual compounds) |
| --- | --- | --- |
| CNCCC(OCc1cccc(N2CCN(C)c3nc(C)ccc3C2=O)c1)c1ccccc1 (stereo not shown) [Example 48, 1,8-Dimethyl-4-(3-((3-(methylamino)-1-phenylpropoxy)methyl)phenyl)-1,2,3,4-tetrahydro-5H-pyrido[2,3-e][1,4]diazepin-5-one] | 500 to 3000 nM |  |
| CNCC[C@H](OCc1cccc(N2CCN(C)c3ccccc3C2=O)c1)c1ccccc1 [Example 49] | > 3000 nM |  |
| CNCCC(Oc1cccc(N2CCN(C)c3ccccc3C2=O)c1)c1cccs1 (stereo not shown) [Example 53, 1-Methyl-4-(3-(3-(methylamino)-1-(thiophen-2-yl)propoxy)phenyl)-1,2,3,4-tetrahydro-5H-benzo[e][1,4]diazepin-5-one] | 500 to 3000 nM |  |
| CNCCC(Oc1cccc(N2CCNCCC2=O)c1)c1cccs1 (stereo not shown) [Example 59, 4-(3-(3-(Methylamino)-1-(thiophen-2-yl)propoxy)phenyl)-1,4-diazepan-5-one] | 500 to 3000 nM |  |
| CNCCC(Oc1cccc(N2CCN(C)c3cnccc3C2=O)c1)c1cccs1 (stereo not shown) [Example 73, 1-Methyl-4-(3-(3-(methylamino)-1-(thiophen-2-yl)propoxy)phenyl)-1.2,3,4-tetrahydro-5H-pyrido[3,4-e][1,4]diazepin-5-one] | 100 to 500 nM |  |
| CNCCC(Oc1cccc(N2CCN(C)c3cc(F)cnc3C2=O)c1)c1cccs1 (stereo not shown) [Example 74, 8-Fluoro-1-methyl-4-(3-(3-(methylamino)-1-(thiophen-2-yl)propoxy)phenyl)-1,2,3,4-tetrahydro-5H-pyrido[3,2-e][1,4]diazepin-5-one] | > 3000 nM |  |
| CNCC(OCc1ccc(N2CCN(C)c3ccccc3C2=O)cc1)c1ccccc1 (stereo not shown) [Example 85, 1-Methyl-4-(4-((2-(methylamino)-1-phenylethoxy)methyl)phenyl)-1,2,3.4-tetrahydro-5H-benzo[e][1,4]diazepin-5-one] | > 3000 nM |  |
| CNCC[C@H](Oc1ccc(CN2CCN(C)c3nc(N(C)C)ccc3C2=O)cc1)c1cccs1 [Example 95, (S)-8-(dimethylamino)-1-methyl-4-(4-(3-(methylamino)-1-(thiophen-2-yl)propoxy)benzyl)-1,2,3.4-tetrahydro-5H-pyrido[2,3-e][1,4]diazepin-5-one] | 500 to 3000 nM |  |
| CNCCC(Oc1ccc(CN2CCN(C)CCC2=O)cc1)c1cccs1 (stereo not shown) [Example 101, 1-Methyl-4-(4-(3-(methylamino)-1-(thiophen-2-yl)propoxy)benzyl)-1,4-diazepan-5-one] | 100 to 500 nM |  |
| CNCCC(Oc1ccc(CN2CCCN(C)CC2)cc1)c1cccs1 (stereo not shown) [Example 102, N-methyl-3-(4-((4-methyl-1,4-diazepan-1-yl)methyl)phenoxy)-3-(thiophen-2-yl)propan-1-amine] | > 3000 nM |  |
| CNCC[C@H](Oc1ccc(CN2CCCn3cccc3C2=O)cc1)c1cccs1 [Example 105, (S)-2-(4-(3-(methylamino)-1-(thiophen-2-yl)propoxy)benzyl)-2,3,4,5-tetrahydro-1H-pyrrolo[1,2-a][1,4]diazepin-1-one] | 500 to 3000 nM | 500 to 3000 nM |
| CNCC(OCc1ccc(CN2CCN(C)c3ccccc3C2=O)cc1)c1ccccc1 (stereo not shown) [Example 109, 1-Methyl-4-(4-((2-(methylamino)-1-phenylethoxy)methyl)benzyl)-1,2,3,4-tetrahydro-5H-benzo[e][1,4]diazepin-5-one] | > 3000 nM |  |
| CNCC[C@H](Oc1ccc(CN2CCCn3nc(C)cc3C2=O)c(C)c1)c1cccs1 [Example 124, (S)-2-methyl-5-(2-methyl-4-(3-(methylamino)-1-(thiophen-2-yl)propoxy)benzyl)-5,6,7,8-tetrahydro-4H-pyrazolo[1,5-a][1,4]diazepin-4-one] | < 100 nM |  |
| CNCC[C@H](Oc1ccc(CN2CCN(C)c3ncc(F)cc3C2=O)c(C)c1)c1cccs1 [Example 125, (S)-7-fluoro-1-methyl-4-(2-methyl-4-(3-(methylamino)-1-(thiophen-2-yl)propoxy)benzyl)-1,2,3,4-tetrahydro-5H-pyrido[2,3-e][1,4]diazepin-5-one] | < 100 nM |  |
| CNCC[C@H](Oc1ccc(CN2CCN(C)c3ncccc3C2=O)c(C(F)(F)F)c1)c1ccccc1 [Example 130, (S)-1-methyl-4-(4-(3-(methylamino)-1-phenylpropoxy)-2-(trifluoromethyl)benzyl)-1,2,3,4-tetrahydro-5H-pyrido[2,3-e][1,4]diazepin-5-one] | < 100 nM |  |
| CNCC[C@H](Oc1ccc(CN2CCN(C)c3ncccc3C2=O)c(C2CC2)c1)c1ccccc1 [Example 133, (S)-4-(2-cyclopropyl-4-(3-(methylamino)-1-phenylpropoxy)benzyl)-1-methyl-1,2,3,4-tetrahydro-5H-pyrido[2,3-e][1,4]diazepin-5-one] | 100 to 500 nM |  |
